Measurements: ChEMBL document CHEMBL4052762, “Synthesis and biological evaluation of pyrrole-based chalcones as CYP1 enzyme inhibitors, for possible prevention of cancer and overcoming cisplatin resistance” (Bioorg Med Chem Lett, 2017)

What was measured:
Cytochrome P450 1A1 [1] = molecular target: T1, Cytochrome P450 1A1 (Homo sapiens, UniProt P04798); experiment: Inhibition of human CYP1A1 transfected in HEK293 cells assessed as protection against CYP1A1 mediated B[a]P toxicity at 20 uM by MTT assay; type: cell-based; details: hek293, 20 µM
T1 sequence (P04798 whole entry): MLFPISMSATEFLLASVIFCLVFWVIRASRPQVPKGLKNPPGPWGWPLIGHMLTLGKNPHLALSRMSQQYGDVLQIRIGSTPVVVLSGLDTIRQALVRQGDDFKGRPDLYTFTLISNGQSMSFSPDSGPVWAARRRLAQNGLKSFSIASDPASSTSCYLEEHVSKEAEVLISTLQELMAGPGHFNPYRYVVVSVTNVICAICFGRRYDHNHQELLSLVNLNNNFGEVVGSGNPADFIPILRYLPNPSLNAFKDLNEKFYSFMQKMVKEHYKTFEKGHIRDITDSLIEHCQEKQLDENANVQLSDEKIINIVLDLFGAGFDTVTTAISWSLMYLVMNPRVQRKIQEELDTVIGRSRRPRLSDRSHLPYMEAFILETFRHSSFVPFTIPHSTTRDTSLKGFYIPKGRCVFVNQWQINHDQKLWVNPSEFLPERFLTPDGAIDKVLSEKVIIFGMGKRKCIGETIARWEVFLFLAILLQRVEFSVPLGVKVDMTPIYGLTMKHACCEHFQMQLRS

[2] = Selectivity ratio of IC50 for human CYP2C19 expressed in HEK293 cells to IC50 for human CYP1A2 expressed in HEK293 cells
[3] = Selectivity ratio of IC50 for human CYP2C19 expressed in HEK293 cells to IC50 for human CYP1A1 expressed in HEK293 cells
[4] = Selectivity ratio of IC50 for human CYP2C19 expressed in HEK293 cells to IC50 for human CYP1B1 expressed in HEK293 cells
Homo sapiens [5] = species: Homo sapiens; experiment: Selectivity ratio of IC50 for human CYP3A4 bound to yeast microsomal membrane to IC50 for human CYP1B1 bound to yeast microsomal membrane
[6] = Selectivity ratio of IC50 for human CYP2C9 expressed in HEK293 cells to IC50 for human CYP1A1 expressed in HEK293 cells
Homo sapiens [7] = species: Homo sapiens; experiment: Selectivity ratio of IC50 for human CYP2C19 bound to yeast microsomal membrane to IC50 for human CYP1B1 bound to yeast microsomal membrane
Homo sapiens [8] = species: Homo sapiens; experiment: Selectivity ratio of IC50 for human CYP2D6 bound to yeast microsomal membrane to IC50 for human CYP1B1 bound to yeast microsomal membrane
Homo sapiens [9] = species: Homo sapiens; experiment: Selectivity ratio of IC50 for human CYP2D6 bound to yeast microsomal membrane to IC50 for human CYP1A1 bound to yeast microsomal membrane
Homo sapiens [10] = species: Homo sapiens; experiment: Selectivity ratio of IC50 for human CYP2C9 bound to yeast microsomal membrane to IC50 for human CYP1B1 bound to yeast microsomal membrane
Homo sapiens [11] = species: Homo sapiens; experiment: Selectivity ratio of IC50 for human CYP2C19 bound to yeast microsomal membrane to IC50 for human CYP1A1 bound to yeast microsomal membrane
Homo sapiens [12] = species: Homo sapiens; experiment: Selectivity ratio of IC50 for human CYP3A4 bound to yeast microsomal membrane to IC50 for human CYP1A2 bound to yeast microsomal membrane
[13] = molecular target: T2, Aryl hydrocarbon receptor (Homo sapiens, UniProt P35869); experiment: Antagonist activity at human AhR expressed in Saccharomyces cerevisiae W303-1A (ATCC 208352) transformed with an episomal plasmid containing a minimal CYC1 promoter, with a concatemer of five XRE enhancer sequences, linked to eGFP reporter gene and co-expressing ARNT assessed as inhibition of B[a]P agonist induced XRE-driven eGFP expression after 18 hrs by fluorescence assay; details: for inhibition (INH): human, 18 h
T2 sequence (P35869 whole entry): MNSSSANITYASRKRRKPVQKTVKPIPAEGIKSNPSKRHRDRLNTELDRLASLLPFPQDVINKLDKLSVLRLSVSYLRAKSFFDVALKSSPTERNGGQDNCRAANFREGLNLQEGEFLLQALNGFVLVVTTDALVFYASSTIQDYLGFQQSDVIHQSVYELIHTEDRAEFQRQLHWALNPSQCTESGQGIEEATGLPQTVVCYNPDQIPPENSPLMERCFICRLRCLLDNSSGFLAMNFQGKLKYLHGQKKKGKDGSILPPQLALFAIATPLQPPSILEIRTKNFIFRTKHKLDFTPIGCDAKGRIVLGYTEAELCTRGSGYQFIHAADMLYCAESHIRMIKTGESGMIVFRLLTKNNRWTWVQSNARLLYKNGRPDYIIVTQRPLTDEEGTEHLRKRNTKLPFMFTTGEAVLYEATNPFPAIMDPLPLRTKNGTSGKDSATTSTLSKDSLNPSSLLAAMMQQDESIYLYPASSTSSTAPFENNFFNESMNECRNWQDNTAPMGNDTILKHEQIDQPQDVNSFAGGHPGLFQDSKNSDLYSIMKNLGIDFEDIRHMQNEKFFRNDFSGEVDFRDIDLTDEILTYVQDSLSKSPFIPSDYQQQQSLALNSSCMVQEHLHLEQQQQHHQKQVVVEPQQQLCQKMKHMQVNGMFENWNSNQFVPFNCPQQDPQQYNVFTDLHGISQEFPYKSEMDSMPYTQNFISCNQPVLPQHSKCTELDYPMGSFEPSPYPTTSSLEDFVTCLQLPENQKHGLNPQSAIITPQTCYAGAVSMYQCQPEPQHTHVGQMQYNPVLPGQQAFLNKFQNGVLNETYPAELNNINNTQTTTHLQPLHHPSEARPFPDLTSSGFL

Cytochrome P450 1A1 [14] = molecular target: T1, Cytochrome P450 1A1; experiment: Inhibition of human CYP1A1 transfected in HEK293 cells assessed as protection from CYP1A1 mediated B[a]P toxicity at 8 times IC50 by MTT assay; type: cell-based
[15] = Selectivity ratio of IC50 for human CYP3A4 expressed in HEK293 cells to IC50 for human CYP1A1 expressed in HEK293 cells
Homo sapiens [16] = species: Homo sapiens; experiment: Selectivity ratio of IC50 for human CYP2C9 bound to yeast microsomal membrane to IC50 for human CYP1A1 bound to yeast microsomal membrane
Homo sapiens [17] = species: Homo sapiens; experiment: Selectivity ratio of IC50 for human CYP2C9 bound to yeast microsomal membrane to IC50 for human CYP1A2 bound to yeast microsomal membrane
[18] = Selectivity ratio of IC50 for human CYP2D6 expressed in HEK293 cells to IC50 for human CYP1A2 expressed in HEK293 cells
Homo sapiens [19] = species: Homo sapiens; experiment: Selectivity ratio of IC50 for human CYP3A4 bound to yeast microsomal membrane to IC50 for human CYP1A1 bound to yeast microsomal membrane
[20] = Selectivity ratio of IC50 for human CYP3A4 expressed in HEK293 cells to IC50 for human CYP1B1 expressed in HEK293 cells

| SMILES | inhibition (INH) (Cytochrome P450 1A1 [1]) | Ratio IC50 [2] | Ratio IC50 [3] | Ratio IC50 [4] | Ratio IC50 (Homo sapiens [5]) | Ratio IC50 [6] | Ratio IC50 (Homo sapiens [7]) | Ratio IC50 (Homo sapiens [8]) | Ratio IC50 (Homo sapiens [9]) | Ratio IC50 (Homo sapiens [10]) | Ratio IC50 (Homo sapiens [11]) | Ratio IC50 (Homo sapiens [12]) | IC50 [13] [µM] | inhibition (INH) [13] | Ratio IC50 [15] | Ratio IC50 (Homo sapiens [16]) | Ratio IC50 (Homo sapiens [17]) | Ratio IC50 [18] | Ratio IC50 (Homo sapiens [19]) | Ratio IC50 [20] | further results |
| --- | --- | --- | --- | --- | --- | --- | --- | --- | --- | --- | --- | --- | --- | --- | --- | --- | --- | --- | --- | --- | --- |
| O=C(/C=C/c1ccc(OC(F)(F)F)cc1)c1ccc[nH]1 | Not Active |  |  |  |  |  |  |  |  |  |  |  |  |  |  |  |  |  |  |  |  |
| COc1ccccc1/C=C/C(=O)c1ccc[nH]1 |  | >20 | >20 | >20 | > 20 | >20 | > 20 | > 20 | > 20 | > 20 | > 20 | > 20 | 1.5 | Dose-dependent effect | >20 | > 20 | > 20 | >20 | > 20 | >20 | inhibition (INH) (Cytochrome P450 1A1 [14]): Active |
| O=C(/C=C/c1ccccc1Cl)c1ccc[nH]1 | Not Active | >20 | >20 | >20 | > 20 | >20 | > 20 | > 20 | > 20 | > 20 | > 20 | > 20 | 7.6 | Dose-dependent effect | >20 | > 20 | > 20 | >20 | > 20 | >20 |  |
